Reference: paper PMC11079024, “Identification of a family of species-selective complex I inhibitors as potential anthelmintics” (Nature Communications, 2024)
Where two headings read alike, the source gives them in different places.

What was measured:
[1] = biological target: C. elegans (N2) complex I (NADH:ubiquinone oxidoreductase) (Caenorhabditis elegans, UniProt P24887+Q93873+Q94360); test: biochemical; type: biochemical
Summary of the method: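 Compounds were tested against freeze-thawed isolated mitochondria (0.2 mg/mL protein). NADH:decylubiquinone activity was monitored via DCIP absorbance at 600 nm, and the initial linear slope was normalised to solvent controls.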

[2] = biological target: B. taurus (heart) complex I (Bos taurus, UniProt P03887+P17694+P42026); test: biochemical; type: biochemical
Sequence of B. taurus (heart) complex I (P03887 whole entry): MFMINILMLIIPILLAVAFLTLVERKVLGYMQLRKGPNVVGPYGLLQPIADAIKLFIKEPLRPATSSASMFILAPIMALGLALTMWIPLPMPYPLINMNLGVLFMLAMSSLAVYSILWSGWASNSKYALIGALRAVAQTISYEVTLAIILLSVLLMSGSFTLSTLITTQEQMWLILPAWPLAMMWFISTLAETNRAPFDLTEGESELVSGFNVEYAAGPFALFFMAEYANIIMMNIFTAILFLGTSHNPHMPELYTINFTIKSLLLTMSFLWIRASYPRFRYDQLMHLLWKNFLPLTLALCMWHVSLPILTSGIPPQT
Sequence of B. taurus (heart) complex I (P17694 34-463): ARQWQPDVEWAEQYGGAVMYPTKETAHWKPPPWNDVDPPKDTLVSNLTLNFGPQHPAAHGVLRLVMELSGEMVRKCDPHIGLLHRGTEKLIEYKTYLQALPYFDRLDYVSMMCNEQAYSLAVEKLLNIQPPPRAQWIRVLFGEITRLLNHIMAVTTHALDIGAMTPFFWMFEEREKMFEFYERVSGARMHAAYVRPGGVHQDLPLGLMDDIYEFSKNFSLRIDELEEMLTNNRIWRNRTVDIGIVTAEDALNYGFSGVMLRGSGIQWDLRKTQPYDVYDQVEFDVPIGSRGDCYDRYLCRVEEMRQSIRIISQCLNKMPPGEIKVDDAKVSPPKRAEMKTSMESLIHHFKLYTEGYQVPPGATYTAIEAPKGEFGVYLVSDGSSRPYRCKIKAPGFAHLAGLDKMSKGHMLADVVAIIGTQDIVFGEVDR
Sequence of B. taurus (heart) complex I (P42026 38-216): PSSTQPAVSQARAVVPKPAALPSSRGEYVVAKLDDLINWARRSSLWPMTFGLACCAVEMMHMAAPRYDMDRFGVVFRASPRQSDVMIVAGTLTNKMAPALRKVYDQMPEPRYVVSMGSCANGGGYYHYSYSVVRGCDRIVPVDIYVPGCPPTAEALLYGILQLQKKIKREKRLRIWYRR
Summary of the method: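 Complex I activity followed as DCIP reduction (600 nm, 30 s reads, 15 min) with 80 μM NADH and 60 μM decylubiquinone in 25 mM KPi pH 7.5 containing 2 μM antimycin A and 2 mM KCN. Freeze-thawed mouse or bovine heart mitochondria at 0.2 mg/mL; initial-rate percent of solvent control, single-point 100 μM or dose-response.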

[3] = wild-type C. elegans mitochondria, mean of replicates, read-out: percent (%) in vitro complex I activity relative to solvent control
[4] = wild-type C. elegans mitochondria, single replicate, read-out: percent (%) in vitro complex I activity relative to solvent control
[5] = B. taurus (heart) mitochondria, mean of replicates, read-out: percent (%) in vitro complex I activity relative to solvent control
[6] = B. taurus (heart) mitochondria, single replicate, read-out: percent (%) in vitro complex I activity relative to solvent control

Sequence of C. elegans (N2) complex I (NADH:ubiquinone oxidoreductase) (Q94360 17-199): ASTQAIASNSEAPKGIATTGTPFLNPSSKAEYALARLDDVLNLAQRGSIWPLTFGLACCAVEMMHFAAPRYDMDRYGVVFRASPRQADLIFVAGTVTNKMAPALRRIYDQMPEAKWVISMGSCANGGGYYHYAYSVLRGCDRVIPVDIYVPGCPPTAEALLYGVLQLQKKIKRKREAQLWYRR
Sequence of C. elegans (N2) complex I (NADH:ubiquinone oxidoreductase) (P24887 whole entry): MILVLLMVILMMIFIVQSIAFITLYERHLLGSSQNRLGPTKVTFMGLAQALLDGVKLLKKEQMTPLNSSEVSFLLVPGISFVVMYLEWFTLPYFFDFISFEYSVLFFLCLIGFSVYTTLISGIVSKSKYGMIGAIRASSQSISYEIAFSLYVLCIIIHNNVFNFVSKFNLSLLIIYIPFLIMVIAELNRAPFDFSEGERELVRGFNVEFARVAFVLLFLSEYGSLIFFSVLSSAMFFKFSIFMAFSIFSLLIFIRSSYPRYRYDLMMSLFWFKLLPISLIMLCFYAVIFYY
Sequence of C. elegans (N2) complex I (NADH:ubiquinone oxidoreductase) (Q93873 31-482): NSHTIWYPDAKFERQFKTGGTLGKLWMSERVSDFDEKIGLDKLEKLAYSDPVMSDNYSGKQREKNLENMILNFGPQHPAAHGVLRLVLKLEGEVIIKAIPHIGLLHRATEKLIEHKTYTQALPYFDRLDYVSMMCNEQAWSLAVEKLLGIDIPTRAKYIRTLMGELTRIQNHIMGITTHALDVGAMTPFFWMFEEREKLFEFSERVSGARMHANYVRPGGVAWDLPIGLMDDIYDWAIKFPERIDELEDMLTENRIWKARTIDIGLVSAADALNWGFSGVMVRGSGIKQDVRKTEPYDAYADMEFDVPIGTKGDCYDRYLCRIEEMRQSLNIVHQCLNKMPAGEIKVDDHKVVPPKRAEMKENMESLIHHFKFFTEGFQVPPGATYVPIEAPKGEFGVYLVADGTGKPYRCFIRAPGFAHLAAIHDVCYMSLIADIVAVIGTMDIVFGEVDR

With COc1ccc(Cc2nccc3cc(OC)c(OC)cc23)cc1OC [Papaverine, reference compound] as the compound, how does the remaining activity at 0.125 µM ([1]; 0.125 µM, wild-type C. elegans mitochondria, mean of replicates, read-out: percent (%) in vitro complex I activity relative to solvent control) read?
The remaining activity at 0.125 µM was 95.7%.

What about the remaining activity at 0.313 µM [1, 3] of the same compound?
Its remaining activity at 0.313 µM is 87.5%.

What about the remaining activity at 0.313 µM [1, 4] of the same compound?
Its remaining activity at 0.313 µM is 85.7%.

And the remaining activity at 0.625 µM [1, 3]?
The remaining activity at 0.625 µM was 100%.

What about the remaining activity at 0.625 µM [1, 4] of the same compound?
Its remaining activity at 0.625 µM is 100%.

What about the remaining activity at 1.5 µM [1, 3] of the same compound?
The remaining activity at 1.5 µM was 81.8%.

What about the remaining activity at 1.5 µM [1, 4] of the same compound?
Its remaining activity at 1.5 µM is 81.5%.

And the remaining activity at 3 µM [1, 3]?
Its remaining activity at 3 µM is 63.8%.

And the remaining activity at 3 µM [1, 4]?
The remaining activity at 3 µM was 67.5%.

And the remaining activity at 15 µM ([1]; 15 µM, wild-type C. elegans mitochondria, mean of replicates, read-out: percent (%) in vitro complex I activity relative to solvent control)?
Its remaining activity at 15 µM is 22.1%.

And the remaining activity at 37.5 µM ([1]; 37.5 µM, wild-type C. elegans mitochondria, mean of replicates, read-out: percent (%) in vitro complex I activity relative to solvent control)?
The remaining activity at 37.5 µM was 6.94%.

And the remaining activity at 75 µM ([1]; 75 µM, wild-type C. elegans mitochondria, mean of replicates, read-out: percent (%) in vitro complex I activity relative to solvent control)?
Its remaining activity at 75 µM is 7.49%.

And the IC50 ([1]; wild-type (N2) mitochondria, read-out: C. elegans Complex I IC50)?
Its IC50 is 4.34 µM.

What about the remaining activity at 0.125 µM [2, 5] of the same compound?
Its remaining activity at 0.125 µM is 93.4%.

What about the remaining activity at 0.125 µM [2, 6] of the same compound?
The remaining activity at 0.125 µM was 87.6%.

And the remaining activity at 0.313 µM [2, 5]?
Its remaining activity at 0.313 µM is 93.3%.

And the remaining activity at 0.313 µM [2, 6]?
The remaining activity at 0.313 µM was 92.3%.

What about the remaining activity at 0.625 µM [2, 5] of the same compound?
The remaining activity at 0.625 µM was 91.6%.

What about the remaining activity at 0.625 µM [2, 6] of the same compound?
The remaining activity at 0.625 µM was 89.2%.

What about the remaining activity at 1.5 µM [2, 5] of the same compound?
Its remaining activity at 1.5 µM is 83.3%.

And the remaining activity at 1.5 µM [2, 6]?
Its remaining activity at 1.5 µM is 88.4%.

What about the remaining activity at 3 µM ([2]; 3 µM, B. taurus (heart) mitochondria, mean of replicates, read-out: percent (%) in vitro complex I activity relative to solvent control) of the same compound?
Its remaining activity at 3 µM is 76.1%.

What about the remaining activity at 15 µM ([2]; 15 µM, B. taurus (heart) mitochondria, mean of replicates, read-out: percent (%) in vitro complex I activity relative to solvent control) of the same compound?
The remaining activity at 15 µM was 30.1%.

And the remaining activity at 37.5 µM ([2]; 37.5 µM, B. taurus (heart) mitochondria, mean of replicates, read-out: percent (%) in vitro complex I activity relative to solvent control)?
The remaining activity at 37.5 µM was 12.9%.

And the remaining activity at 75 µM [2, 5]?
The remaining activity at 75 µM was 6.58%.

And the remaining activity at 75 µM [2, 6]?
The remaining activity at 75 µM was 9.15%.

What about the IC50 ([2]; heart mitochondria, read-out: B. taurus Complex I IC50) of the same compound?
Its IC50 is 8.5 µM.
